Columns and labels:
[1] = test system: annual bluegrass (Poa annua L.); assay: Whole plant non-target site resistance experiment with P450 inhibitors malathion or PBO (control 21 days after treatment); type: in vivo; settings: for Annual bluegrass control S: susceptible (S)
Procedure: Additional experiments were conducted during March–April 2015 to determine if non-target site based mechanisms conferred resistance to ALS inhibitors in our annual bluegrass population, POAAN-R3. Plants (RP6, RP7, and S) were cultured in plastic conical containers as previously described and allowed to acclimate to the glasshouse for 18 days prior to initiating two experiments.
In the first experiment, resistant (RP6, RP7) and susceptible (S) plants were treated with foramsulfuron at 29 g ha^−1, trifloxysulfuron (Monument. Syngenta Professional Products. Greensboro, NC, USA) at 27.8 g ha^−1, imazaquin (Image. BASF Corporation. Research Triangle Park, NC) at 27.5 g ha^−1, or bispyribac-sodium (Velocity. Valent USA Corporation. Walnut Creek, CA, USA) at 70 g ha^−1. All herbicides were applied alone or in combination with either malathion (Spectrum Group. St. Louis, MO, USA) at 1000 g ha^−1 or piperonyl butoxide (Sigma Aldrich. St. Louis, MO, USA) at 2100 g ha^−1. Malathion and piperonyl butoxide (PBO) inhibit cytochrome P450 monooxygenases involved in metabolism of ALS inhibiting herbicides and are commonly used at the application rates tested herein to evaluate non-target site based resistance mechanisms in weeds (Burnet et al. [1994]; Christopher et al. [1992]; Yu and Powles [2014b]; Rao et al. [1995]). All herbicides were mixed in water carrier and included non-ionic surfactant at 0.25 % v/v. Malathion and PBO were mixed with methanol and de-ionized water (50:50) and applied 60 min prior to herbicide application using a previously described enclosed spray chamber on 13 February 2015.
Annual bluegrass control was visually assessed on a 0 (i.e., no control) to 100 % (i.e., complete kill) scale relative to the non-treated 21 days after treatment. After all control data had been collected, aboveground biomass was harvested from each plastic conical container at the soil line using scissors, dried at 100 °C, and weighed. Treatments were arranged as a 3 × 5 × 3 factorial with three plant selections (RP6, RP7, S), five herbicides (foramsulfuron, trifloxysulfuron, imazaquin, bispyribac-sodium, non-treated) and three P450 inhibitor treatments (malathion, PBO, non-treated) in a completely randomized design with four replications and repeated in separate glasshouses during February 2015.

[2] = test system: annual bluegrass (Poa annua L.); assay: Whole plant confirmation of target-site resistance (visual control and dry biomass 28 days after treatment); type: in vivo
Procedure: Progeny of all POAAN-R3 plants subjected to genetic sequencing (RP1–RP8) were surface seeded into separate 10.2 × 10.2 cm greenhouse pots (Dillen Products/Myers Industries, Inc. Middlefield, OH, USA.) filled with a peat moss growing medium (ProMix BX Mycorrhizae. Premier Tech Horticulture, Quakertown, PA, USA) on 5 January 2015. The susceptible annual bluegrass population (S) included in our sequencing analysis was also seeded in the same fashion.
After seeding, pots were placed inside a growth chamber (Conviron A1000. Controlled Environments Inc, Hendersonville, NC) configured to provide 14 h day at 19 °C and a 10 h night at 10 °C. Light intensity inside the chamber averaged 296 μmol m^−2 s^−1. Irrigation was applied to each pot daily using distilled water and a misting nozzle. Annual bluegrass emergence was first noted on 16 January 2015. Plants remained inside the growth chamber until 26 January 2015. On this date, seedlings of each plant (RP1–RP8, S) were transplanted into individual 164 cm^3 plastic conical containers (SC10 Super Cell Cone-tainer. Stuewe and Sons. Tangent, OR 97389) filled with Sequatchie silt loam (fine-loamy, siliceous, semiactive, thermic humic Hapludult) measuring 6.2 in soil pH and 2.1 % in organic matter content. Transplants were replicated such that 32 plastic conical containers were created for each annual bluegrass plant analyzed in previous experiments (RP1–RP8, S). Immediately after transplanting, plastic conical containers were placed in a glasshouse located at the University of Tennessee (Knoxville, TN, USA; 35.56, 83.56). Peak light intensity in this glasshouse averaged 714 μmol m^−2 s^−1 with day/night temperatures averaging 27/17 °C. Irrigation was applied daily using an overhead misting system and plants were not clipped prior to initiating this study.
Plants were allowed to acclimate to this glasshouse environment for 10 days prior to being treated with foramsulfuron (Revolver. Bayer Environmental Sciences. Research Triangle Park, NC, USA) at 29 g ha^−1, imazamox (Clearcast. BASF Corporation. Research Triangle Park, NC) at 140 g ha^−1, or simazine (Princep 4L. Syngenta Professional Products. Greensboro, NC) at 1120 g ha^−1. Per label recommendations, imazamox and simazine treatments included a non-ionic surfactant (Activator-90. Loveland Products Inc. Greeley, CO, USA) at 0.25 % v/v. All treatments were applied in an enclosed spray chamber (Generation III track sprayer. DeVries Manufacturing, Hollandale, MN, USA) using a water carrier at 215 L ha^−1 through an 8004 EVS nozzle (TeeJet, Technologies, Spraying Systems Co., Glendale Heights, IL, USA). These herbicide treatments were selected to confirm results of genetic sequencing that RP1–RP8 were resistant to sulfonylurea, imidazolinone, and photosystem II inhibiting herbicides. A non-treated control treatment was included with each resistant (RP1–RP8) and susceptible (S) plant for comparison. Herbicides were applied on 5 February 2015 when plants were at a two-to-three leaf stage, prior to annual bluegrass tiller formation.
Annual bluegrass control was visually assessed on a 0 (i.e., no control) to 100 % (i.e., complete kill) scale relative to the non-treated 28 days after treatment. After all control data had been collected, aboveground biomass was harvested from each plastic conical container at the soil line using scissors, dried at 100 °C for 3 days, and weighed.
Treatments were arranged as a 9 × 4 factorial with nine plant selections (i.e., RP1–RP8, S) and four herbicide treatments (i.e., foramsulfuron, imazamox, simazine, non-treated) in a completely randomized design with four replications and repeated in time and space during February 2015. Plants were the same age during both experimental runs.

With COc1cc(OC)nc(NC(=O)NS(=O)(=O)c2cc(NC=O)ccc2C(=O)N(C)C)n1 [Foramsulfuron] the “Annual bluegrass control RP6” value ([1]; RP6, herbicide alone, foramsulfuron 29, trifloxysulfuron 27.8, imazaquin 27.5, bispyribac-sodium 70 g ha^−1) was 58%, the “Annual bluegrass control RP6” value ([1]; RP6, herbicide with PBO 2100 g ha^−1 applied 60 min prior) was 31% and the “Annual bluegrass control RP6” value ([1]; RP6, herbicide with malathion 1000 g ha^−1 applied 60 min prior) was 24%. The “Annual bluegrass control RP7” value ([1]; RP7, herbicide alone, foramsulfuron 29, trifloxysulfuron 27.8, imazaquin 27.5, bispyribac-sodium 70 g ha^−1) was 28%, the “Annual bluegrass control RP7” value ([1]; RP7, herbicide with PBO 2100 g ha^−1 applied 60 min prior) was 24% and the “Annual bluegrass control RP7” value ([1]; RP7, herbicide with malathion 1000 g ha^−1 applied 60 min prior) was 22%. For the same molecule, the “Annual bluegrass control S” value ([1]; herbicide alone, foramsulfuron 29, trifloxysulfuron 27.8, imazaquin 27.5, bispyribac-sodium 70 g ha^−1) was 91%, the “Annual bluegrass control S” value ([1]; herbicide with PBO 2100 g ha^−1 applied 60 min prior) was 95% and the “Annual bluegrass control S” value ([1]; herbicide with malathion 1000 g ha^−1 applied 60 min prior) was 96%. The “annual bluegrass control, resistant plants with the exception of RP6” value ([2]; 28 days after treatment, summary over RP1–RP5, RP7, RP8) was at most 11%, the “Annual bluegrass biomass RP1” value ([2]; RP1, aboveground dry biomass 28 days after treatment, foramsulfuron 29, imazamox 140, simazine 1120 g ha^-1) was 60 % of nontreated control and the “Annual bluegrass control RP1” value ([2]; RP1 plants, 28 days after treatment, 2 to 3 leaf stage, foramsulfuron 29, imazamox 140, simazine 1120 g ha^−1) was 8%. For the same molecule, the “Annual bluegrass biomass RP2” value ([2]; RP2, aboveground dry biomass 28 days after treatment, foramsulfuron 29, imazamox 140, simazine 1120 g ha^-1) was 45 % of nontreated control, the “Annual bluegrass control RP2” value ([2]; RP2 plants, 28 days after treatment, 2 to 3 leaf stage, foramsulfuron 29, imazamox 140, simazine 1120 g ha^−1) was 11% and the “Annual bluegrass biomass RP3” value ([2]; RP3, aboveground dry biomass 28 days after treatment, foramsulfuron 29, imazamox 140, simazine 1120 g ha^-1) was 48 % of nontreated control. For the same molecule, the “Annual bluegrass control RP3” value ([2]; RP3 plants, 28 days after treatment, 2 to 3 leaf stage, foramsulfuron 29, imazamox 140, simazine 1120 g ha^−1) was 11%, the “Annual bluegrass biomass RP4” value ([2]; RP4, aboveground dry biomass 28 days after treatment, foramsulfuron 29, imazamox 140, simazine 1120 g ha^-1) was 41 % of nontreated control and the “Annual bluegrass control RP4” value ([2]; RP4 plants, 28 days after treatment, 2 to 3 leaf stage, foramsulfuron 29, imazamox 140, simazine 1120 g ha^−1) was 5%. For the same molecule, the “Annual bluegrass biomass RP5” value ([2]; RP5, aboveground dry biomass 28 days after treatment, foramsulfuron 29, imazamox 140, simazine 1120 g ha^-1) was 62 % of nontreated control, the “Annual bluegrass control RP5” value ([2]; RP5 plants, 28 days after treatment, 2 to 3 leaf stage, foramsulfuron 29, imazamox 140, simazine 1120 g ha^−1) was 10% and the “Annual bluegrass biomass RP6” value ([2]; RP6, aboveground dry biomass 28 days after treatment, foramsulfuron 29, imazamox 140, simazine 1120 g ha^-1) was 49 % of nontreated control. For the same molecule, the “Annual bluegrass control RP6” value ([2]; RP6 plants, 28 days after treatment, 2 to 3 leaf stage, foramsulfuron 29, imazamox 140, simazine 1120 g ha^−1) was 24%, the “Annual bluegrass biomass RP7” value ([2]; RP7, aboveground dry biomass 28 days after treatment, foramsulfuron 29, imazamox 140, simazine 1120 g ha^-1) was 52 % of nontreated control and the “Annual bluegrass control RP7” value ([2]; RP7 plants, 28 days after treatment, 2 to 3 leaf stage, foramsulfuron 29, imazamox 140, simazine 1120 g ha^−1) was 10%. For the same molecule, the “Annual bluegrass biomass RP8” value ([2]; RP8, aboveground dry biomass 28 days after treatment, foramsulfuron 29, imazamox 140, simazine 1120 g ha^-1) was 51 % of nontreated control, the “Annual bluegrass control RP8” value ([2]; RP8 plants, 28 days after treatment, 2 to 3 leaf stage, foramsulfuron 29, imazamox 140, simazine 1120 g ha^−1) was 5% and the “Annual bluegrass control S” value ([2]; susceptible (S) plants, 28 days after treatment, 2 to 3 leaf stage, foramsulfuron 29, imazamox 140, simazine 1120 g ha^−1) was 93%. For the same molecule, the “Annual bluegrass biomass S” value ([2]; susceptible (S), aboveground dry biomass 28 days after treatment, foramsulfuron 29, imazamox 140, simazine 1120 g ha^-1) was 0 % of nontreated control.

From paper PMC4698308, “A new amino acid substitution (Ala-205-Phe) in acetolactate synthase (ALS) confers broad spectrum resistance to ALS-inhibiting herbicides” (Planta, 2015)
